According to patent publication US11712429B2, “Low eructation composition and methods for treating and/or preventing cardiovascular disease in a subject with fish allergy/hypersensitivity” (Amarin Pharmaceuticals Ireland Limited, priority 2010, dated 2023):
Values belong to the compound of their own block, whether it stands above or below them.

Key:
[1] = test system: subjects with age-associated impairment (AAMI); experiment: CDR computerized cognitive test battery, 6-week placebo-controlled dose-ranging study; type: in vivo, human
Method: A single center, double blind, randomized, parallel-group, placebo controlled dose-ranging study of E-EPA in subjects with age-associated impairment (AAMI) was performed. The primary goal was to examine the effect of ethyl-EPA versus placebo on cognitive performance in subjects with AAMI as measure by the power of attention tasks in a computerized test batter over a period of 6 weeks. Secondary objectives were to:
(1) examine the effect of E-EPA versus placebo over 6 weeks on the following tests in the computerized cognitive battery: Continuity of attention tasks; Quality of working memory tasks; Quality of episodic memory tasks; Speed of attention tasks;
The study plan was to enroll 96 subjects who would be randomly allocated to 1 of 4 possible treatment groups for 6 weeks, in a balanced block design (24 subjects per group), as follows: • 1. 1 g ethyl-EPA daily • 2. 2 g ethyl-EPA daily • 3. 4 g ethyl-EPA daily • 4. Placebo (paraffin oil) daily
Ethyl-EPA was provided as 500 mg soft gel capsules providing ethyl-EPA of >96% purity, 0.25% to 0.38% by weight ethyl octadecatetraenoate, 0.075% to 0.15% by weight ethyl nonaecapentaenoate, 0.25% to 0.35% by weight ethyl arachidonate, 0.3% to 0.4% by weight ethyl eicosatetraenoate (ETA-E), 0.075% to 0.15% ethyl heneicosapentaenoate and 0.2% dl-[…]-tocopherol as an antioxidant. Matching placebo capsules contained […] of liquid paraffin and 0.2% dl-[…]-tocopherol. The placebo group was further randomized so that an equal number of subjects (8) was allocated 1 g, 2 g or 4 g placebo. Study drug was taken twice daily (BID) as a divided dose (e.g. for the 1 g dose, 500 mg was given in the morning and a further 500 mg was given in the evening) with a light snack or meal.
The study consisted of a screening visit, a training visit and 4 study visits. At the screening visit, subjects' eligibility was determined through cognitive tests (verbal paired associated learning [PAL] subscale, vocabulary subtest, Memory Assessment Clinics Questionnaire [MAC-Q], mini mental state evaluation [MMSE] and MINI [mini international neuropsychiatirc interview; sections 1 and 2 of Diagnostic and Statistical Manual of Mental Disorders, 4th Ed. (DSM-IV) plus dysthymia]), haematology, clinical chemistry and 12-lead electrocardiogram (ECG). At the training visit, subjects were shown how to use the CDR computerized system. Subjects took study drug for 6 weeks and on Days 0, 14, 28 and 42, subjects underwent the CDR cognitive test battery.
A selection of tasks from the CDR computerized cognitive assessment system were administered (Appendix 8 of protocol) at Visit 2 (training visit), Visit 3 (baseline), Visit 4 (Day 14), Visit 5 (Day 28) and Visit 6 (Day 42). Parallel forms of the tests were presented at each testing session. All tasks were computer-controlled, the information presented on high resolution monitors, and the responses recorded via a response model containing 2 buttons 1 marked ‘no’ the other ‘yes’. Five CDR composite scores were used as the primary/secondary outcome variables.
Summary statistics were provided for the ITT and Study PP Populations separately for all composite scores, major and supportive variables. Summary statistics were performed for both the unadjusted and difference from baseline data (i.e. the difference from the time matched pre-dose assessments on Day 0). Summary statistics were calculated by treatment, day and time-point. The summary statistics comprised n, mean, median, SD, standard error of mean (SEM), minimum and maximum values.
Difference from baseline data for each major variable was evaluated by an Analysis of Covariance (ANCOVA) using SAS® PROC MIXED Version 8.2.
Fixed effects for treatment, day, time point, treatment by day, treatment by time point, treatment by day by time-point were fitted. Subject within treatment was fitted as a repeated effect using the repeated statement. The compound symmetry covariance structure was used. […]

[2] = Essential fatty acid (EFA) measurements in plasma and RBC, AAMI study; type: in vivo, human
Method: (3) assess the potential dose-effect relationship of E-EPA on the cognitive endpoints by measurement of essential fatty acids in plasma and red blood cell membranes. 94 subjects were randomized. Blood samples (10 mL) were collected at Visit 1 (screening) and at Visits 4, 5 and 6. Analysis was performed by MSR Lipid Analysis, Scottish Crop Research Institute, Dundee, UK. The screening sample acted as baseline for the EFA measurements. Lipid was extracted from plasma, serum and RBC suspensions and converted into fatty acid methyl esters which were analyzed by gas chromatography to give fatty acid profiles as micrograms fatty acid per gram of sample (μgFA/g) and normalized area percent. The CDR computerized system has been used to measure the effects of pharmaceuticals on cognitive function in a variety of clinical trials. Efficacy was assessed by a battery of cognition tests designed by CDR. Safety data were analyzed by Quanticate. RBC and plasma EFA data were collected at baseline, Day 14, 28 and 42 and summarized by visit for each treatment group. Change from baseline and percent change from baseline were also summarized. ANCOVA comparison of ethyl-EPA dose groups and ethyl-EPA versus placebo was performed.

[3] = test system: individuals with Huntington disease; experiment: Huntington disease trial (TREND-HD): non-fasting triacylglycerols and total cholesterol; type: in vivo, human
Text: Eligible study participants provided written consent. […] The outcome measure of this study was the change in non-fasting triacylglycerol (TG) levels in those on AMR101 compared to those on placebo. Changes in lipid levels were compared using an analysis of covariance (ANCOVA) with treatment group as the factor of interest, site as a stratification factor, and baseline value as a covariate. All individuals who received study medication were included in the safety analysis. For each type of adverse event, the treatment groups were compared regarding the occurrence of at least one event using Fisher's exact test.

[4] = test system: individuals with Huntington disease; experiment: Huntington disease trial (TREND-HD): total motor score 4 of the Unified Huntington's Disease Rating Scale; type: in vivo, human
Text: Eligible study participants provided written consent.

[5] = parameters: species or system human; conditions: in vivo
Method: A phase I, multiple dose pharmacokinetic study in healthy male volunteers was carried out at a single center. Twenty-four subjects were divided into two treatment groups of 12 subjects each (groups A and B). Both groups received the same total daily dose of AMR101 but the dosing regiments were different. All subjects received a single oral dose of 2 g AMR101 on Day 1. Treatment Group A received 28 continuous once daily doses of 2 g AMR101. Treatment Group B received 27 continuous twice daily doses of 1 g AMR101 and a single dose of 2 g of AMR101 on day 30.
Levels of EPA and other essential fatty acids were determined in plasma and red blood cells. Blood samples for pharmacokinetic analysis were taken at the following time points for Treatment groups A and B:
Days 9, 16, 23: pre morning dose;
Days 37, 44, 58: post last dose.
A first Interim Report presents the following pharmacokinetic results for Treatment Group B:
Red cell—Day 1 (Pre-dose and 36 h), Day 30 (1 h post-dose), Day 37, Day 44, Day 58.

[6] = test system: patients with fasting triglyceride levels ≥500 mg/dL; experiment: Phase 3 12-week double-blind study: treatment-emergent adverse events; type: in vivo, human; conditions: 12 weeks
Method: A multi-center, placebo-controlled randomized, double-blind, 12-week study with an open-label extension was performed to evaluate the efficacy and safety of AMR101 in patients with fasting triglyceride levels ≥500 mg/dL. The primary objective of the study was to determine the efficacy of AMR101 2 g daily and 4 g daily, compared to placebo, in lowering fasting TG levels in patients with fasting TG levels ≥500 mg/dL and ≤1500 mg/dL (≥5.65 mmol/L and ≤16.94 mmol/L). Approximately 240 patients were randomized at approximately 50 centers in North America, South America, Central America, Europe, India, and South Africa. The Phase 3, multi-center study consisted of 3 study periods: (1) A 6- to 8-week screening period that includes a diet and lifestyle stabilization and washout period and a TG qualifying period; (2) A 12-week, double-blind, randomized, placebo-controlled treatment period; and (3) A 40-week, open-label, extension period. After confirmation of qualifying fasting TG values, eligible patients entered a 12-week, randomized, double-blind treatment period. At Visit 4 (Week 0), patients were randomly assigned to 1 of the following treatment groups: • AMR101 2 g daily, • AMR101 4 g daily, or • Placebo. Eligible patients were randomly assigned at Visit 4 (Week 0) to receive orally AMR101 2 g daily, AMR101 4 g daily, or placebo for the 12-week double-blind treatment period. AMR101 was provided in 1 g liquid-filled, oblong, gelatin capsules. The matching placebo capsule was filled with light liquid paraffin and contained 0 g of AMR101. During the double-blind treatment period, patients took 2 capsules (AMR101 or matching placebo) in the morning and 2 in the evening for a total of 4 capsules per day. Patients in the AMR101 2 g/day treatment group received 1 AMR101 1 g capsule and 1 matching placebo capsule in the morning and in the evening. Patients in the AMR101 4 g/day treatment group received 2 AMR101 1 g capsules in the morning and evening. The efficacy variable for the open-label extension period was percent change in fasting TG from extension baseline to end of treatment. Safety assessments included adverse events, clinical laboratory measurements (chemistry, hematology, and urinalysis), 12-lead electrocardiograms (ECGs), vital signs, and physical examinations Top line results of the study are shown in FIGS. 3 and 4. Adverse events are shown in Table 9 by comparison with placebo and those experienced by subjects taking commercially available mixture of E-EPA and E-DHA (Lovaza).

[7] = test system: subjects with AAMI; conditions: 50 mg, cited from earlier work

EPA, DPAn-3 and EPA/AA ratio plasma and RBC values ([2]; baseline to Day 42, 1, 2, and 4 g treatment groups): increased substantially | plasma lipid EPA levels at 48 hours post-administration ([5]; po): remaining above baseline | Tmax ([5]; male, human): 4.64 h | time of maximum plasma lipid EPA values ([5]; male, human, po): 5 h
Structure (SMILES): CC/C=C\C/C=C\C/C=C\C/C=C\C/C=C\CCCC(=O)OCC [AMR101, all-cis eicosa-5,8,11,14,17-pentaenoic acid ethyl ester]
Choice Reaction Time ([1]; 1 and 4 g ethyl-EPA on Day 42, versus placebo): some trends for benefit | Continuity of Attention ([1]; 2 g ethyl-EPA, only visible in the ITT population): overall decrease | Speed of Memory and subtasks (Spatial and Numeric Working Memory Speeds, Word and Picture Recognition Speed) ([1]; Ethyl-EPA vs placebo, F-ratio statistics): no differences in performance | Digit Vigilance Targets Detected ([1]; active treatment versus placebo, no obvious treatment-related pattern): isolated decreases | Self-rated Calmness ([1]; active treatment vs placebo): no difference in ratings | Power of Attention ([1]; ethyl-EPA 1, 2, 4 g daily vs placebo, 6 weeks, ANCOVA): no statistically significant effect of treatment | Choice Reaction Time ([1]; ethyl-EPA 1 g and 2 g on Day 28, versus placebo, no clear treatment-related pattern): statistically significant benefits | Quality of Working Memory ([1]; ethyl-EPA 1 g and 2 g versus placebo on Days 14 and 28, judged due to chance): isolated statistically significant decreases | Self-rated Contentment ([1]; ethyl-EPA 2 g on Day 28, judged unlikely treatment-related): statistically significant decreases in ratings | Quality of Episodic Secondary Memory ([1]; ethyl-EPA versus placebo at various time-points, judged unlikely to be treatment effect): statistically significant decreases | Self-rated Alertness ([1]; ethyl-EPA vs placebo): no apparent difference in ratings | Continuity of Attention ([1]; ethyl-EPA vs placebo, 6 weeks): did not show a difference | Reaction times in the attention tasks (Power of Attention, Simple Reaction Time, Choice Reaction Time) ([1]; post-hoc analysis, ethyl-EPA 4 g vs corresponding placebo): improved the subjects' reaction times | Percent Fatty Acid Change from Baseline: AA ([2]; 4 g dose, plasma, 6 weeks): −21.9% | Percent Fatty Acid Change from Baseline: DGLA ([2]; 4 g dose, plasma, 6 weeks): −39.4% | Percent Fatty Acid Change from Baseline: DHA ([2]; 4 g dose, plasma, 6 weeks): −17.5% | Percent Fatty Acid Change from Baseline: DPA ([2]; 4 g dose, plasma, 6 weeks): +147% | AA, DHA and DGLA values ([2]; change from baseline, data not shown): decreased substantially | Total cholesterol reduction ([3]; 1 gram twice/day, after 6 months, baseline 204 mg/dL, p=0.009 vs placebo): 9.5 mg/dL | decrease in TGs ([3]; 1 gram twice/day, after 6 months, non-fasting, baseline 171, p=0.007 vs placebo): 26 mg/dL | Change in triglycerides after 6 months (mean mg/dL ± SD) ([3]; 1 gram twice/day, baseline 171 ± 108, p .007): -25.8 ± 89.1 mg/dL | Change in total cholesterol after 6 months (mean mg/dL ± SD) ([3]; 1 gram twice/day, baseline 204 ± 41.4, p .009): -9.5 ± 28.6 mg/dL | Change in triglycerides after 12 months (mean mg/dL ± SD) ([3]; second 6 months open-label, p 0.66): -17.7 ± 86.7 mg/dL | Change in total cholesterol after 12 months (mean mg/dL ± SD) ([3]; second 6 months open-label, p 0.95): -5.6 ± 25.5 mg/dL | Change in total motor score 4 at 12 months (mean) ([4]; All Study Participants n = 316, baseline 25.2, p 0.02): 0.0 | Change in total motor score 4 at 6 months (mean) ([4]; All Study Participants n = 316, baseline 25.2, p 0.20): 0.2 | Change in total motor score 4 at 12 months (mean) ([4]; Study Participants with CAG < 45, n = 221, baseline 24.9, p 0.004): −1.2 | Change in total motor score 4 at 6 months (mean) ([4]; Study Participants with CAG < 45, n = 221, baseline 24.9, p 0.70): 0.0 | Diarrhea ([6]; 2 g/day, N = 76): 4 (5.3) n (%) | Dyspepsia ([6]; 2 g/day, N = 76): 1 (1.3) n (%) | Eructation ([6]; 2 g/day, N = 76): 1 (1.3) n (%) | Hypertension ([6]; 2 g/day, N = 76): 4 (5.3) n (%) | Infection ([6]; 2 g/day, N = 76): 2 (2.6) n (%) | Nausea ([6]; 2 g/day, N = 76): 5 (6.6) n (%) | Skin rash ([6]; 2 g/day, N = 76): 1 (1.3) n (%) | Subjects with any TEAE ([6]; 2 g/day, N = 76): 27 (35.5) n (%) | Diarrhea ([6]; 4 g/day, N = 77): 1 (1.3) n (%) | Dyspepsia ([6]; 4 g/day, N = 77): 1 (1.3) n (%) | Eructation ([6]; 4 g/day, N = 77): 0 (0.0) n (%) | Hypertension ([6]; 4 g/day, N = 77): 1 (1.3) n (%) | Infection ([6]; 4 g/day, N = 77): 4 (5.2) n (%) | Nausea ([6]; 4 g/day, N = 77): 1 (1.3) n (%) | Skin rash ([6]; 4 g/day, N = 77): 0 (0.0) n (%) | Subjects with any TEAE ([6]; 4 g/day, N = 77): 28 (36.4) n (%)

Structure (SMILES): CN[C@@H](C)C/C=C/c1cncc(OC(C)C)c1 [Ispronicline]
Power of Attention, mean ([7]; Day 21, SD=61.22, placebo mean=28.25): -32.54 ms | benefit to Power of Attention (vs placebo) ([7]; Day 21 of repeated dosing, subjects with AAMI): 61 ms
